Data from PubChem BioAssay (NCI).
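Compound exposure: 48 hours, 5 concentrations, 96-well plates. GI50: concentration for 50% inhibition of growth. TGI is the concentration that stops growth completely.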

Key:
Assay in all cases: DTP human tumour cell line panel, 48 h
HCT-116 colon = tested on: HCT-116 colon
MDA-MB-231 breast = tested on: MDA-MB-231 breast
HCC-2998 colon = tested on: HCC-2998 colon
EKVX NSCLC = tested on: EKVX NSCLC
RPMI-8226 leukemia = tested on: RPMI-8226 leukemia
HL-60(TB) leukemia = tested on: HL-60(TB) leukemia
SK-MEL-2 melanoma = tested on: SK-MEL-2 melanoma
MDA-MB-435 = tested on: MDA-MB-435
HS 578T breast = tested on: HS 578T breast
A498 renal = tested on: A498 renal
NCI-H460 lung = tested on: NCI-H460 lung
SN12C renal = tested on: SN12C renal
OVCAR-5 ovarian = tested on: OVCAR-5 ovarian
M14 melanoma = tested on: M14 melanoma
U251 CNS = tested on: U251 CNS
NCI-H226 lung = tested on: NCI-H226 lung
MOLT-4 leukemia = tested on: MOLT-4 leukemia
HT29 colon = tested on: HT29 colon
SK-MEL-5 melanoma = tested on: SK-MEL-5 melanoma
BT-549 breast = tested on: BT-549 breast
KM12 colon = tested on: KM12 colon
MALME-3M melanoma = tested on: MALME-3M melanoma
SK-MEL-28 melanoma = tested on: SK-MEL-28 melanoma
UACC-257 melanoma = tested on: UACC-257 melanoma
SK-OV-3 ovarian = tested on: SK-OV-3 ovarian
OVCAR-4 ovarian = tested on: OVCAR-4 ovarian
A549 NSCLC = tested on: A549 NSCLC
SF-268 CNS = tested on: SF-268 CNS
ACHN renal = tested on: ACHN renal
COLO 205 colon = tested on: COLO 205 colon
UO-31 renal = tested on: UO-31 renal
UACC-62 melanoma = tested on: UACC-62 melanoma
CAKI-1 renal = tested on: CAKI-1 renal
PC-3 prostate = tested on: PC-3 prostate
DU-145 prostate = tested on: DU-145 prostate
NCI/ADR-RES ovarian = tested on: NCI/ADR-RES ovarian
SF-539 CNS = tested on: SF-539 CNS
786-0 renal = tested on: 786-0 renal
SF-295 CNS = tested on: SF-295 CNS
K-562 leukemia = tested on: K-562 leukemia
MCF7 breast = tested on: MCF7 breast
SW-620 colon = tested on: SW-620 colon
CCRF-CEM leukemia = tested on: CCRF-CEM leukemia
SNB-75 CNS = tested on: SNB-75 CNS
TK-10 renal = tested on: TK-10 renal
RXF 393 renal = tested on: RXF 393 renal
IGROV1 ovarian = tested on: IGROV1 ovarian
HCT-15 colon = tested on: HCT-15 colon
SNB-19 CNS = tested on: SNB-19 CNS
SR leukemia = tested on: SR leukemia
T-47D breast = tested on: T-47D breast
NCI-H23 lung = tested on: NCI-H23 lung
NCI-H522 lung = tested on: NCI-H522 lung
HOP-92 NSCLC = tested on: HOP-92 NSCLC
OVCAR-8 ovarian = tested on: OVCAR-8 ovarian
HOP-62 NSCLC = tested on: HOP-62 NSCLC

O=C1CC2(CCOCC2)Oc2ncccc21
GI50 (HCT-116 colon): 1.87 µM
TGI (HCT-116 colon): 3.59 µM
GI50 (MDA-MB-231 breast): 1.7 µM
TGI (MDA-MB-231 breast): 3.15 µM
GI50 (HCC-2998 colon): 1.78 µM
TGI (HCC-2998 colon): 3.4 µM
GI50 (EKVX NSCLC): 1.84 µM
TGI (EKVX NSCLC): 3.87 µM
GI50 (RPMI-8226 leukemia): 0.545 µM
TGI (RPMI-8226 leukemia): 4.7 µM
GI50 (HL-60(TB) leukemia): 2.23 µM
TGI (HL-60(TB) leukemia): 5.2 µM
GI50 (SK-MEL-2 melanoma): 2.73 µM
TGI (SK-MEL-2 melanoma): 7.32 µM
GI50 (MDA-MB-435): 2 µM
TGI (MDA-MB-435): 4.3 µM
GI50 (HS 578T breast): 2.54 µM
TGI (HS 578T breast): 8.26 µM
GI50 (A498 renal): 2.38 µM
TGI (A498 renal): 9.57 µM
GI50 (NCI-H460 lung): 2.3 µM
TGI (NCI-H460 lung): 5.61 µM
GI50 (SN12C renal): 1.84 µM
TGI (SN12C renal): 3.44 µM
GI50 (OVCAR-5 ovarian): 1.7 µM
TGI (OVCAR-5 ovarian): 3.18 µM
GI50 (M14 melanoma): 1.85 µM
TGI (M14 melanoma): 3.76 µM
GI50 (U251 CNS): 1.83 µM
TGI (U251 CNS): 3.63 µM
GI50 (NCI-H226 lung): 2.06 µM
TGI (NCI-H226 lung): 4.59 µM
GI50 (MOLT-4 leukemia): 2.11 µM
TGI (MOLT-4 leukemia): 4.8 µM
GI50 (HT29 colon): 2.19 µM
TGI (HT29 colon): 4.85 µM
GI50 (SK-MEL-5 melanoma): 2.09 µM
TGI (SK-MEL-5 melanoma): 4.34 µM
GI50 (BT-549 breast): 1.84 µM
TGI (BT-549 breast): 3.36 µM
GI50 (KM12 colon): 2.76 µM
TGI (KM12 colon): 7.65 µM
GI50 (MALME-3M melanoma): 1.79 µM
TGI (MALME-3M melanoma): 3.51 µM
GI50 (SK-MEL-28 melanoma): 1.81 µM
TGI (SK-MEL-28 melanoma): 3.36 µM
GI50 (UACC-257 melanoma): 2.53 µM
TGI (UACC-257 melanoma): 7.53 µM
GI50 (SK-OV-3 ovarian): 15.7 µM
TGI (SK-OV-3 ovarian): 29.3 µM
GI50 (OVCAR-4 ovarian): 2.1 µM
TGI (OVCAR-4 ovarian): 4.82 µM
GI50 (A549 NSCLC): 4.94 µM
TGI (A549 NSCLC): 19.1 µM
GI50 (SF-268 CNS): 2.55 µM
TGI (SF-268 CNS): 7.7 µM
GI50 (ACHN renal): 1.81 µM
TGI (ACHN renal): 3.21 µM
GI50 (COLO 205 colon): 1.91 µM
TGI (COLO 205 colon): 4 µM
GI50 (UO-31 renal): 2.63 µM
TGI (UO-31 renal): 12.8 µM
GI50 (UACC-62 melanoma): 1.7 µM
TGI (UACC-62 melanoma): 3.22 µM
GI50 (CAKI-1 renal): 1.6 µM
TGI (CAKI-1 renal): 3.04 µM
GI50 (PC-3 prostate): 2.42 µM
TGI (PC-3 prostate): 6.03 µM
GI50 (DU-145 prostate): 2.98 µM
TGI (DU-145 prostate): 8.42 µM
GI50 (NCI/ADR-RES ovarian): 2.05 µM
TGI (NCI/ADR-RES ovarian): 4.99 µM
GI50 (SF-539 CNS): 1.74 µM
TGI (SF-539 CNS): 3.22 µM
GI50 (786-0 renal): 2.38 µM
TGI (786-0 renal): 6.33 µM
GI50 (SF-295 CNS): 12.5 µM
TGI (SF-295 CNS): 25.4 µM
GI50 (K-562 leukemia): 1.99 µM
TGI (K-562 leukemia): > 100 µM
GI50 (MCF7 breast): 2.8 µM
TGI (MCF7 breast): 12.8 µM
GI50 (SW-620 colon): 1.77 µM
TGI (SW-620 colon): 3.5 µM
GI50 (CCRF-CEM leukemia): 2.11 µM
TGI (CCRF-CEM leukemia): 4.74 µM
GI50 (SNB-75 CNS): 2.07 µM
TGI (SNB-75 CNS): 12.4 µM
GI50 (TK-10 renal): 6.68 µM
TGI (TK-10 renal): 37.1 µM
GI50 (RXF 393 renal): 1.77 µM
TGI (RXF 393 renal): 3.41 µM
GI50 (IGROV1 ovarian): 1.88 µM
TGI (IGROV1 ovarian): 3.86 µM
GI50 (HCT-15 colon): 1.7 µM
TGI (HCT-15 colon): 3.34 µM
GI50 (SNB-19 CNS): 2.05 µM
TGI (SNB-19 CNS): 4.83 µM
GI50 (SR leukemia): 0.974 µM
TGI (SR leukemia): 4.69 µM
GI50 (T-47D breast): 4.66 µM
TGI (T-47D breast): 26.9 µM
GI50 (NCI-H23 lung): 1.89 µM
TGI (NCI-H23 lung): 3.86 µM
GI50 (NCI-H522 lung): 2 µM
TGI (NCI-H522 lung): 4.15 µM
GI50 (HOP-92 NSCLC): 1.67 µM
TGI (HOP-92 NSCLC): 3.3 µM
GI50 (OVCAR-8 ovarian): 2.19 µM
TGI (OVCAR-8 ovarian): 4.92 µM
GI50 (HOP-62 NSCLC): 3.24 µM
TGI (HOP-62 NSCLC): 13.1 µM
